The structures appear in SMILES notation.

The target of the first assay is Glycogen synthase kinase-3 beta (Homo sapiens, UniProt P49841).
Glycogen synthase kinase-3 beta, sequence (P49841 whole entry): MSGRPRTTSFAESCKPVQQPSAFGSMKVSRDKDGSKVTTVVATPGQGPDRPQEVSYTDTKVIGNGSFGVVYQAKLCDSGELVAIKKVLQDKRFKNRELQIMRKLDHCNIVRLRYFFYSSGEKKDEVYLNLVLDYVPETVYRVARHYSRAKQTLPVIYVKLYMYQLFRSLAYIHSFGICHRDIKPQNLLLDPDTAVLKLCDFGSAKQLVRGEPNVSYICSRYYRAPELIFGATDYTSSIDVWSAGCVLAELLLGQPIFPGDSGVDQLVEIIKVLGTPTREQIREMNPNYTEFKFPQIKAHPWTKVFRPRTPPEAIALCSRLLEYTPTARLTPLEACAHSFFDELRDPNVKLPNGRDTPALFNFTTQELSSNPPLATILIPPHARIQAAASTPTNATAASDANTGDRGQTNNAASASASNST
Description: Binding affinity for human glycogen synthase kinase 3 beta
As usually defined, the IC50 is the concentration that gives 50% inhibition. With `Cc1ccc2c(-c3ccnc(Nc4ccccc4)n3)c(-c3ccc(F)cc3)nn2n1` [GW833373X], the IC50 came out at 20 nM. The same measure, in the same setting: the value for `COc1cccc(Nc2nccc(-c3cnn4nc(OC)ccc34)n2)c1` was 100 nM. On the same count and under the same terms, the value for `Cc1ccc2c(-c3ccnc(Nc4ccc5c(c4)OCCO5)n3)c(-c3ccccc3)nn2n1` was 30 nM; that for `Cc1ccc2c(-c3ccnc(Nc4ccc(F)c(F)c4)n3)c(-c3ccc(F)cc3)nn2n1` was 10 nM; that for `COc1cc(Nc2nccc(-c3cnn4nc(C)ccc34)n2)cc(C(F)(F)F)c1` was 10 nM. Still for that read-out and setting: the value for `Fc1ccc(Nc2nccc(-c3c(C4CCCCC4)nn4ncccc34)n2)cc1F` was more than 20000 nM. Turning to `COc1ccc2c(-c3ccnc(Nc4ccc([N+](=O)[O-])cc4)n3)cnn2n1`, the IC50 was 70 nM.

In turn, `FC(F)(F)c1ccc(-c2nn3ncccc3c2-c2ccnc(Nc3cccc(C(F)(F)F)c3)n2)cc1` had an IC50 of more than 31600 nM. Still for that read-out and setting: then `Cc1ccc2c(-c3ccnc(Nc4ccc(Cl)c(C(F)(F)F)c4)n3)c(-c3ccccc3)nn2n1`, with 100 nM.

The compound `Cc1ccc2c(-c3ccnc(Nc4ccc(Cl)c(C(F)(F)F)c4)n3)c(-c3ccc(F)cc3)nn2n1` yielded an IC50 of 50 nM.

For the compound `Clc1ccc(Nc2nccc(-c3cnn4ncccc34)n2)cc1Cl`, the IC50 was found to be 10 nM.

Regarding `FC(F)(F)c1cc(Nc2nccc(-c3c(-c4ccccc4)nn4ncccc34)n2)ccc1Cl`, the IC50 worked out at 20 nM. The same measure, in the same setting: the value for `Cc1ccc2c(-c3ccnc(Nc4cccc(C(F)(F)F)c4)n3)cnn2n1` was less than 10 nM; that for `c1ccc(-c2ccc3c(-c4ccnc(Nc5ccc6c(c5)OCCO6)n4)cnn3n2)cc1` was 120 nM; that for `Cc1ccc2c(-c3ccnc(Nc4ccc5c(c4)OCCO5)n3)cnn2n1` was 10 nM.

As for `CCC(C)c1ccc(Nc2nccc(-c3cnn4ncccc34)n2)cc1` (stereo not given), it took 120 nM to reach half-maximal inhibition (IC50). The compound `COc1cc(Nc2nccc(-c3cnn4nc(OC)ccc34)n2)cc(OC)c1` returned an IC50 of 120 nM. On the same count and under the same terms, the value for `CC(C)c1ccc(Nc2nccc(-c3cnn4ncccc34)n2)cc1` [GW805758X] was 30 nM; that for `Fc1ccc(-c2nn3ncccc3c2-c2ccnc(Nc3ccc(Cl)c(C(F)(F)F)c3)n2)cc1` was 40 nM.

The compound `CCOc1ccc2c(-c3ccnc(Nc4cccc(C(F)(F)F)c4)n3)cnn2n1` [GW811761X] yielded an IC50 of 190 nM. On the same count and under the same terms, then `COc1ccc2c(-c3ccnc(Nc4cccc(C(F)(F)F)c4)n3)cnn2n1`, with 50 nM; and `COc1ccc2c(-c3ccnc(Nc4ccc5c(c4)OCCO5)n3)cnn2n1`, with 30 nM; and `FC(F)(F)c1ccc(-c2nn3ncccc3c2-c2ccnc(Nc3ccc(Cl)c(C(F)(F)F)c3)n2)cc1`, with more than 31600 nM. In turn, `COc1cc(Nc2nccc(-c3cnn4nc(OC)ccc34)n2)cc(C(F)(F)F)c1` showed an IC50 of 190 nM. On the same count and under the same terms, the value for `Cc1ccc2c(-c3ccnc(Nc4ccc5c(c4)OCCO5)n3)c(-c3cccc(C(F)(F)F)c3)nn2n1` was 150 nM; that for `Cc1ccc2c(-c3ccnc(Nc4ccc(C(F)(F)F)cc4)n3)cnn2n1` was 50 nM. The same measure, in the same setting: the value for `Fc1ccc(Nc2nccc(-c3c(-c4ccc(C(F)(F)F)cc4)nn4ncccc34)n2)cc1F` [GW828529X] was more than 31600 nM; that for `Cc1ccc2c(-c3ccnc(Nc4ccccc4)n3)c(-c3cccc(C(F)(F)F)c3)nn2n1` was 790 nM. The same measure, in the same setting: the value for `Oc1ccc2c(-c3ccnc(Nc4cccc(C(F)(F)F)c4)n3)cnn2n1` was 10 nM. Consider `Fc1ccc(-c2nn3ncccc3c2-c2ccnc(Nc3ccccc3)n2)cc1`, for which the IC50 came out at 20 nM. In the case of `Fc1ccc(-c2nn3ncccc3c2-c2ccnc(Nc3ccc4c(c3)OCCO4)n2)cc1` [GW827099X], the IC50 turned out to be 10 nM.

`COCCOc1cnn2ncc(-c3ccnc(Nc4cccc(OC)c4)n3)c2c1` came in with an IC50 of 80 nM. In the case of `Fc1ccc(Nc2nccc(-c3c(-c4cccc(C(F)(F)F)c4)nn4ncccc34)n2)cc1F`, inhibition was half-maximal at 310 nM (IC50).

A further assay concerns the target Cyclin-dependent kinase 2 (Homo sapiens, UniProt P24941).
In turn, `Cc1ccc2c(-c3ccnc(Nc4ccc(Cl)c(C(F)(F)F)c4)n3)c(-c3cccc(C(F)(F)F)c3)nn2n1` had an IC50 of more than 20000 nM. In turn, `Cc1ccc2c(-c3ccnc(Nc4ccccc4)n3)c(-c3ccc(F)cc3)nn2n1` [GW833373X] had an IC50 of more than 20000 nM. On to `COc1cccc(Nc2nccc(-c3cnn4nc(OC)ccc34)n2)c1`, for which half-maximal inhibition (IC50) was put at 60 nM.

`Cc1ccc2c(-c3ccnc(Nc4ccc5c(c4)OCCO5)n3)c(-c3ccccc3)nn2n1` showed an IC50 of more than 20000 nM. Same read-out and setting: the value for `Cc1ccc2c(-c3ccnc(Nc4ccc(F)c(F)c4)n3)c(-c3ccc(F)cc3)nn2n1` was more than 20000 nM; that for `COc1cc(Nc2nccc(-c3cnn4nc(C)ccc34)n2)cc(C(F)(F)F)c1` was 20 nM; that for `Fc1ccc(Nc2nccc(-c3c(C4CCCCC4)nn4ncccc34)n2)cc1F` was more than 20000 nM.

Regarding `COc1ccc2c(-c3ccnc(Nc4ccc([N+](=O)[O-])cc4)n3)cnn2n1`, the IC50 worked out at 20 nM. The same measure, in the same setting: then `FC(F)(F)c1ccc(-c2nn3ncccc3c2-c2ccnc(Nc3cccc(C(F)(F)F)c3)n2)cc1`, with more than 20000 nM. `Cc1ccc2c(-c3ccnc(Nc4ccc(Cl)c(C(F)(F)F)c4)n3)c(-c3ccccc3)nn2n1` returned an IC50 of more than 20000 nM. Same read-out and setting: the value for `Fc1ccc(-c2nn3ncccc3c2-c2ccnc(Nc3ccc(F)c(F)c3)n2)cc1` was more than 20000 nM. Same read-out and setting: the value for `Cc1ccc2c(-c3ccnc(Nc4ccc(Cl)c(C(F)(F)F)c4)n3)c(-c3ccc(F)cc3)nn2n1` was more than 20000 nM; that for `Clc1ccc(Nc2nccc(-c3cnn4ncccc34)n2)cc1Cl` was 1 nM. Still for that read-out and setting: the value for `FC(F)(F)c1cc(Nc2nccc(-c3c(-c4ccccc4)nn4ncccc34)n2)ccc1Cl` was more than 20000 nM; that for `Cc1ccc2c(-c3ccnc(Nc4cccc(C(F)(F)F)c4)n3)cnn2n1` was 50 nM; that for `FC(F)(F)c1cc(Nc2nccc(-c3c(-c4ccc(Cl)cc4)nn4ncccc34)n2)ccc1Cl` was more than 20000 nM. For `c1ccc(-c2ccc3c(-c4ccnc(Nc5ccc6c(c5)OCCO6)n4)cnn3n2)cc1`, the IC50 was more than 20000 nM. The same measure, in the same setting: then `Cc1ccc2c(-c3ccnc(Nc4ccc5c(c4)OCCO5)n3)cnn2n1`, with 6 nM; and `CCC(C)c1ccc(Nc2nccc(-c3cnn4ncccc34)n2)cc1` (stereo not given), with 150 nM; and `COc1cc(Nc2nccc(-c3cnn4nc(OC)ccc34)n2)cc(OC)c1`, with 190 nM. The same measure, in the same setting: the value for `c1cnn2ncc(-c3ccnc(Nc4ccc5c(c4)OCO5)n3)c2c1` was 10 nM; that for `CC(C)c1ccc(Nc2nccc(-c3cnn4ncccc34)n2)cc1` [GW805758X] was 10 nM. `COc1ccc(-c2nn3ncccc3c2-c2ccnc(Nc3ccc(Cl)c(C(F)(F)F)c3)n2)cc1` [GW829115X] came in with an IC50 of more than 20000 nM. For the compound `Fc1ccc(-c2nn3ncccc3c2-c2ccnc(Nc3ccc(Cl)c(C(F)(F)F)c3)n2)cc1`, the IC50 is more than 20000 nM. The same measure, in the same setting: then `FC(F)(F)c1cccc(Nc2nccc(-c3c(-c4ccc(Cl)cc4)nn4ncccc34)n2)c1`, with more than 20000 nM; and `CCOc1ccc2c(-c3ccnc(Nc4cccc(C(F)(F)F)c4)n3)cnn2n1` [GW811761X], with 1990 nM.

For the compound `COc1ccc(-c2nn3ncccc3c2-c2ccnc(Nc3cccc(C(F)(F)F)c3)n2)cc1` [GW827105X], the IC50 was more than 20000 nM.

For the compound `COc1ccc2c(-c3ccnc(Nc4cccc(C(F)(F)F)c4)n3)cnn2n1`, the IC50 turned out to be 160 nM.

Compound `COc1ccc2c(-c3ccnc(Nc4cc(C(F)(F)F)cc(C(F)(F)F)c4)n3)cnn2n1` yielded an IC50 of more than 20000 nM. Same read-out and setting: then `COc1ccc2c(-c3ccnc(Nc4ccc5c(c4)OCCO5)n3)cnn2n1`, with 100 nM; and `FC(F)(F)c1ccc(-c2nn3ncccc3c2-c2ccnc(Nc3ccc(Cl)c(C(F)(F)F)c3)n2)cc1`, with more than 20000 nM; and `COc1cc(Nc2nccc(-c3cnn4nc(OC)ccc34)n2)cc(C(F)(F)F)c1`, with 790 nM. Same read-out and setting: then `Cc1ccc2c(-c3ccnc(Nc4ccc5c(c4)OCCO5)n3)c(-c3cccc(C(F)(F)F)c3)nn2n1`, with 5000 nM; and `Cc1ccc2c(-c3ccnc(Nc4ccc(C(F)(F)F)cc4)n3)cnn2n1`, with 190 nM; and `O=[N+]([O-])c1ccc(Nc2nccc(-c3cnn4ncccc34)n2)cc1`, with 20 nM.

For the compound `Clc1ccc(-c2nn3ncccc3c2-c2ccnc(Nc3ccccc3)n2)cc1` [GW829055X], the IC50 is more than 20000 nM. Still for that read-out and setting: the value for `Fc1ccc(Nc2nccc(-c3c(-c4ccc(C(F)(F)F)cc4)nn4ncccc34)n2)cc1F` [GW828529X] was more than 20000 nM; that for `Cc1ccc2c(-c3ccnc(Nc4ccccc4)n3)c(-c3cccc(C(F)(F)F)c3)nn2n1` was more than 20000 nM. The same measure, in the same setting: the value for `Oc1ccc2c(-c3ccnc(Nc4cccc(C(F)(F)F)c4)n3)cnn2n1` was 8 nM; that for `Fc1ccc(-c2nn3ncccc3c2-c2ccnc(Nc3ccccc3)n2)cc1` was more than 20000 nM; that for `Fc1ccc(-c2nn3ncccc3c2-c2ccnc(Nc3ccc4c(c3)OCCO4)n2)cc1` [GW827099X] was more than 20000 nM. On the same count and under the same terms, then `COCCOc1cnn2ncc(-c3ccnc(Nc4cccc(OC)c4)n3)c2c1`, with more than 20000 nM; and `COc1ccc(-c2nn3ncccc3c2-c2ccnc(Nc3ccccc3)n2)cc1`, with more than 20000 nM; and `N#Cc1ccc(Nc2nccc(-c3cnn4ncccc34)n2)cc1`, with 1 nM. With `Fc1ccc(Nc2nccc(-c3c(-c4cccc(C(F)(F)F)c4)nn4ncccc34)n2)cc1F`, the IC50 was more than 20000 nM. Still for that read-out and setting: then `c1ccc(-c2nn3ncccc3c2-c2ccnc(Nc3ccc4c(c3)OCCO4)n2)cc1`, with more than 20000 nM. On the same count and under the same terms, then `Cc1ccc2c(-c3ccnc(Nc4ccc(F)c(F)c4)n3)c(-c3cccc(C(F)(F)F)c3)nn2n1`, with more than 20000 nM; and `c1ccc(Nc2nccc(-c3c(C4CC4)nn4ncccc34)n2)cc1`, with 3980 nM; and `FC(F)(F)c1cc(Br)cc(Nc2nccc(-c3cnn4ncccc34)n2)c1`, with 10 nM. Same read-out and setting: then `c1cnn2ncc(-c3ccnc(Nc4ccc5c(c4)OCCCO5)n3)c2c1`, with 6 nM; and `COc1ccc(-c2nn3ncccc3c2-c2ccnc(Nc3ccc(F)c(F)c3)n2)cc1` [GW827396X], with more than 20000 nM; and `FC(F)(F)c1cccc(Nc2nccc(-c3cnn4nc(-c5ccccc5)ccc34)n2)c1` [GW819077X], with 2500 nM.
